Reference: publication PMC6804243, “Small-Molecule Inhibition of UBE2T/FANCL-Mediated Ubiquitylation in the Fanconi Anemia Pathway” (ACS Chemical Biology, 2019)

Assays:
U2OS cells = assay: Cell cycle analysis based on EdU incorporation; details: for S-phase indices: CU1 200 μM or CU2 500 μM
Protocol: (§1) Figure 3 Cell-based assays with CU1 and CU2: (a) Western blot showing that the formation of mUb-FANCD2(*), in response to HU treatment (2.5 mM, 8 h), is impaired in U2OS cells in the presence of CU1 (200 μM) or CU2 (500 μM). Ratio = mUb-FANCD2/FANCD2 (normalized to DMSO control). mUb-FANCD2 was resolved on a separate gel. PARP1 was used as a loading control for each gel, as well as to assess apoptosis. (b) Quantification of the reduction in mUb-FANCD2, in response to HU treatment (2.5 mM, 8 h) in the presence of CU1 (200 μM) or CU2 (500 μM). Mean calculated from three independent experiments. (c) Western blot showing that formation of mUb-FANCD2 (denoted by an asterisk symbol, *) in response to cisplatin treatment (10 μM) for 6, 12, and 24 h is impaired in U2OS cells in the presence of CU2 (500 μM). Ratio = mUb-FANCD2/FANCD2 (normalized to DMSO control). (d) Cell cycle analyses based upon EdU incorporation in cells treated with HU (2.5 mM, 8 h) in the presence or absence of CU1 (200 μM) or CU2 (500 μM). HU treatment was used for gating purposes. […] TEXT PRINTED IN THE PICTURE: (d) DMSO: S-phase 42.7; G1 29.2; G2-M 27.8 | (d) HU: S-phase 0.24; G1 72.4; G2-M 22.9 | (d) CU1: S-phase 43.4; G1 26.8; G2-M 29.1 | (d) CU2: S-phase 39.7; G1 31.9; G2-M 28.2 DOUBTS OF THE COPYIST ABOUT THIS PICTURE: Panel d print is small, so these digits are best readings: DMSO G2-M 27.8 (8 or 6); CU1 G1 26.8 (6 or 8); CU2 S-phase 39.7 (9 or 8); CU2 G2-M 28.2 (8 or 6) / Panels a and c: the lane ratios printed under the western blots (a: 1.0, 0.64, 0.40; c: 1.0/0.65, 1.0/0.63, 1.0/0.53) were left out because they belong to blots and the picture prints no measure for them […]
As DNA damage induced by HU is cell-cycle-dependent, it was necessary to establish whether CU1 and CU2 might simply prevent cells from entering the S-phase, which would also manifest itself as a reduction in mUb-FANCD2. This was determined by analysis of several biomarkers linked to DNA damage in cycling cells. […]

[1] = tested on: mUb-H2A and total protein ubiquitylation; assay: Immunoblot of widespread cellular ubiquitylation (mUb-H2A, FK2 antibody); assay type: cell-based; details: U2OS; CU1 200 μM or CU2 500 μM; with or without HU 2.5 mM, 8 h
Protocol: as §1, with “experiments.” for “experiments. (c) Western blot showing that formation of mUb-FANCD2 (denoted by an asterisk symbol, *) in response to cisplatin treatment (10 μM) for 6, 12, and 24 h is impaired in U2OS cells in the presence of CU2 (500 μM). Ratio = mUb-FANCD2/FANCD2 (normalized to DMSO control). (d) Cell cycle analyses based upon EdU incorporation in cells treated with HU (2.5 mM, 8 h) in the presence or absence of CU1 (200 μM) or CU2 (500 μM). HU treatment was used for gating purposes.”
To investigate if the compounds were affecting more widespread ubiquitylation events in the cell, the monoubiquitylation status of histone H2A was assessed (mUb-H2A; Figure 3a). […]

Row | SMILES | EdU incorporation intensity (U2OS cells; CU1 200 μM) | S-phase indices (U2OS cells) | total protein ubiquitylation (FK2 antibody) [1]
1 | NCCN1C(=O)CC[C@H]2CN(Cc3cccc(-c4ccco4)c3)CC[C@H]21 [CU1] | slightly lower | no reduction in S-phase indices | do not affect total protein ubiquitylation
2 | CCN1CCN(c2cc(C)nc3nc(CN4CCCCC4C)nn23)CC1 (centres unmarked) [CU2] |  | no reduction in S-phase indices | do not affect total protein ubiquitylation
